Values of other authors as cited in publication PMC6972991 (Chemistry (Weinheim an Der Bergstrasse, Germany), 2019).

For `O=S(=O)(O)c1ccccc1` [benzenesulfonic acid], the pKa is listed as “≈ 4”.
